SMILES strings stand for the structures.

This experiment concerns A549. As to the kind of experiment: Cell proliferation assay (Prolif.), IC50 scored relative to DMSO control. The format is cell-based. The following applies: A549 cells; for Rel. Prolif., A549: proliferation response relative to DMSO control, scored low/medium/high; for Prolif, A549: IC50 class relative to DMSO control. How it is done:
Cell Proliferation Assay (Prolif.) Guo et al. (2018) Nat. Chem. 11:254-63. Specific cell lines are indicated in each assay and cultured in complete growth media. Activity is scored according to the IC50 values relative to DMSO control. “Low” indicates an IC50 greater than 600 nM, “Medium” indicates an IC50 between 300 nM and 600 nM “High” indicates an IC50 less than 300 nM. “Rel.Uptake” refers to uptake activity characterization relative to a single concentration assay. “Low” indicates a response greater than 0.6 times the activity relative to DMSO, “Medium” indicates a response between 0.6 and 0.3 times the activity relative to DMSO, “High” indicates a response less than 0.3 times the activity relative to DMSO.

`CCCC[C@H]1C(=O)N[C@@H](Cc2ccc3ccccc3c2)C(=O)N(C)[C@@H](COC(C)(C)C)C(=O)NCC(=O)N(C)CCC=CC(=O)OCC(C)(C)C(=O)C(=O)N2CCCC[C@H]2C(=O)O[C@H](CCc2cc(OC)cc(OC)c2OC)c2cccc(c2)OCC(=O)N1C` [Compound 563]: the “Rel. Prolif., A549” value is “low”.

With `CCCC[C@H]1C(=O)N[C@@H](Cc2ccc3ccccc3c2)C(=O)N(C)[C@@H](COC(C)(C)C)C(=O)NCC(=O)N(C)CCC=CC(=O)OCC(C)(C)C(=O)C(=O)N2CCCC[C@H]2C(=O)O[C@H](CCc2c(OC)ccc(OC)c2OC)c2cccc(c2)OCC(=O)N1C` [Compound 564], the “Rel. Prolif., A549” value is “low”.

Consider `CCCC[C@H]1C(=O)N[C@@H](Cc2ccc3ccccc3c2)C(=O)N(C)[C@@H](COC(C)(C)C)C(=O)NCC(=O)N(C)CCC=CC(=O)OCC(C)(C)C(=O)C(=O)N2CCCC[C@H]2C(=O)O[C@H](CCc2ccc(OC)c(OC)c2O)c2cccc(c2)OCC(=O)N1C` [Compound 565], for which the “Prolif, A549” value was “me- dium” and the “Rel. Prolif., A549” value was “medium”.

Take `CCCC[C@H]1C(=O)N[C@@H](Cc2ccc3ccccc3c2)C(=O)N(C)[C@@H](COC(C)(C)C)C(=O)NCC(=O)N(C)CCC=CC(=O)OCC(C)(C)C(=O)C(=O)N2CCCC[C@H]2C(=O)O[C@H](CCc2cc(O)c(OC)c(OC)c2)c2cccc(c2)OCC(=O)N1C` [Compound 566]: the “Prolif, A549” value is reported as “me- dium” and the “Rel. Prolif., A549” value is “medium”.

For the molecule `CCCC[C@H]1C(=O)N[C@@H](Cc2ccc3ccccc3c2)C(=O)N(C)[C@@H](COC(C)(C)C)C(=O)NCC(=O)N(C)CCC=CC(=O)OCC(C)(C)C(=O)C(=O)N2CCCC[C@H]2C(=O)O[C@H](CCc2cc(OC)c(OC)cc2O)c2cccc(c2)OCC(=O)N1C` [Compound 567], the “Prolif, A549” value is recorded as “me- dium” and the “Rel. Prolif., A549” value was “medium”.

Regarding `CCCC[C@H]1C(=O)N[C@@H](Cc2ccc3ccccc3c2)C(=O)N(C)[C@@H](COC(C)(C)C)C(=O)NCC(=O)N(C)CCC=CC(=O)OCC(C)(C)C(=O)C(=O)N2CCCC[C@H]2C(=O)O[C@H](CCc2cc(F)c(OC)c(OC)c2)c2cccc(c2)OCC(=O)N1C` [Compound 568], the “Prolif, A549” value is reported as “me- dium” and the “Rel. Prolif., A549” value is reported as “medium”.

For `CCCC[C@H]1C(=O)N[C@@H](Cc2ccc3ccccc3c2)C(=O)N(C)[C@@H](COC(C)(C)C)C(=O)NCC(=O)N(C)CCC=CC(=O)OCC(C)(C)C(=O)C(=O)N2CCCC[C@H]2C(=O)O[C@H](CCc2cc(OC)c(OC)cc2F)c2cccc(c2)OCC(=O)N1C` [Compound 569], the “Prolif, A549” value was “me- dium” and the “Rel. Prolif., A549” value is recorded as “medium”.

With `CCCC[C@H]1C(=O)N[C@@H](Cc2ccc3ccccc3c2)C(=O)N(C)[C@@H](COC(C)(C)C)C(=O)NCC(=O)N(C)CCC=CC(=O)OCC(C)(C)C(=O)C(=O)N2CCCC[C@H]2C(=O)O[C@H](CCc2ccc(OC)c(OC)c2F)c2cccc(c2)OCC(=O)N1C` [Compound 570], the “Prolif, A549” value is “me- dium” and the “Rel. Prolif., A549” value is “medium”.

As for `CCCC[C@H]1C(=O)N[C@@H](Cc2ccc3ccccc3c2)C(=O)N(C)[C@@H](COC(C)(C)C)C(=O)NCC(=O)N(C)CCC=CC(=O)OCC(C)(C)C(=O)C(=O)N2CCN(C(=O)OCC3c4ccccc4-c4ccccc43)C[C@H]2C(=O)O[C@H](CCc2ccc(OC)c(OC)c2)c2cccc(c2)OCC(=O)N1C` [Compound 571], the “Rel. Prolif., A549” value is “low”.

As to `CCCC[C@H]1C(=O)N[C@@H](Cc2ccc3ccccc3c2)C(=O)N(C)[C@@H](COC(C)(C)C)C(=O)NCC(=O)N(C)CCC=CC(=O)OCC(C)(C)C(=O)C(=O)N2CCN(C)C[C@H]2C(=O)O[C@H](CCc2ccc(OC)c(OC)c2)c2cccc(c2)OCC(=O)N1C` [Compound 572], the “Prolif, A549” value is on record as “me- dium” and the “Rel. Prolif., A549” value is on record as “medium”.

`CCCC[C@H]1C(=O)N[C@@H](Cc2ccc3ccccc3c2)C(=O)N(C)[C@@H](COC(C)(C)C)C(=O)NCC(=O)N(C)CCC=CC(=O)OCC(C)(C)C(=O)C(=O)N2CCCC[C@H]2C(=O)O[C@H](CCc2ccc(OC)c(OC)c2)c2cc(ccc2F)OCC(=O)N1C` [Compound 573]: the “Rel. Prolif., A549” value was “low”.

The record behind these values is patent publication US20230000996A1, “RAPAFUCIN DERIVATIVE COMPOUNDS AND METHODS OF USE THEREOF” (The Johns Hopkins University, priority 2019, published 2023).
